Data on six compounds can be found in ChEMBL document CHEMBL1150977, “A quantitative analysis of kinase inhibitor selectivity” (Nat Biotechnol, 2008).

Test [1] addresses Serine/threonine-protein kinase PLK3 (Homo sapiens, UniProt Q9H4B4).
In test [2] the target is T1, Tyrosine-protein kinase Mer (Homo sapiens, UniProt Q12866).
T1 sequence (Q12866 whole entry): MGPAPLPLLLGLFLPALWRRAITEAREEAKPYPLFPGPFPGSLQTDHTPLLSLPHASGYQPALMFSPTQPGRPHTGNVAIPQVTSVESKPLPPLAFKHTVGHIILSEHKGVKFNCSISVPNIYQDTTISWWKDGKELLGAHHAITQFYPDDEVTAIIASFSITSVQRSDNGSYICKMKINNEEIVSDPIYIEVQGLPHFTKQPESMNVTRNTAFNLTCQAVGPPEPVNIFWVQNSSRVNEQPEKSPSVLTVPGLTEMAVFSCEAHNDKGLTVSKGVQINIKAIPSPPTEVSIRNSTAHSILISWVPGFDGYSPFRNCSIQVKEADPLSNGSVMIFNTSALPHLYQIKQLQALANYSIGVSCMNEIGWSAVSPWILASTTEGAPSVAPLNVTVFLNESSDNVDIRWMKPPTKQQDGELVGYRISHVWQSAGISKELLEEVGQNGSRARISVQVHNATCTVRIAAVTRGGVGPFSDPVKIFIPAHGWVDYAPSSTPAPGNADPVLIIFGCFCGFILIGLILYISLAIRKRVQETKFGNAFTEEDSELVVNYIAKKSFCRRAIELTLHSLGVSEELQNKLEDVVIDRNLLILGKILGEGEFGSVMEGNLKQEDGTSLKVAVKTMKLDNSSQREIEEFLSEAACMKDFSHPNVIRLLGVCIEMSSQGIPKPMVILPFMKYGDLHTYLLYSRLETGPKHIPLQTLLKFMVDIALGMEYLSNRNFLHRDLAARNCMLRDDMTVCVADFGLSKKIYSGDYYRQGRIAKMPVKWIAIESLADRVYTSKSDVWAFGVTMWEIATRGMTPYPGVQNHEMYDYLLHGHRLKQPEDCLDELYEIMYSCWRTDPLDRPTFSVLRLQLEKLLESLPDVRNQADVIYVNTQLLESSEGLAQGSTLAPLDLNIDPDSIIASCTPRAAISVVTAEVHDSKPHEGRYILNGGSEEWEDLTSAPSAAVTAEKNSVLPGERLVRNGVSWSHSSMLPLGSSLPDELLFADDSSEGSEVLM

For test [3], the target named is Dual specificity protein kinase CLK2 (Homo sapiens, UniProt P49760).
Chain of Dual specificity protein kinase CLK2 (P49760 whole entry): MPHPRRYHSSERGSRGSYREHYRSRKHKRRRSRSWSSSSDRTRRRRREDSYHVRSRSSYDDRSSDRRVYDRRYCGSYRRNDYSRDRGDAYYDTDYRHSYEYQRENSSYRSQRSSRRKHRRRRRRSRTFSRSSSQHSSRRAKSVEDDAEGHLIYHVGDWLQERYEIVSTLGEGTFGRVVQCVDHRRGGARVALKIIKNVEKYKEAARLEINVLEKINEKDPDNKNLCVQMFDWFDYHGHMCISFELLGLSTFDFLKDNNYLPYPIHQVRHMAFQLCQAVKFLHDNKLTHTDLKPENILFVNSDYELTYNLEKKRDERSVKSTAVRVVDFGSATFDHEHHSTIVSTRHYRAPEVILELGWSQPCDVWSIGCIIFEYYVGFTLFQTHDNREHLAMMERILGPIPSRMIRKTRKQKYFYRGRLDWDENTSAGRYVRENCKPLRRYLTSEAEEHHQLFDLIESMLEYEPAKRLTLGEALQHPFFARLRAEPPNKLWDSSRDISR
Test [4] deals with T2, Cyclin-dependent kinase 11A (Homo sapiens, UniProt Q9UQ88).
T2 sequence (Q9UQ88 whole entry): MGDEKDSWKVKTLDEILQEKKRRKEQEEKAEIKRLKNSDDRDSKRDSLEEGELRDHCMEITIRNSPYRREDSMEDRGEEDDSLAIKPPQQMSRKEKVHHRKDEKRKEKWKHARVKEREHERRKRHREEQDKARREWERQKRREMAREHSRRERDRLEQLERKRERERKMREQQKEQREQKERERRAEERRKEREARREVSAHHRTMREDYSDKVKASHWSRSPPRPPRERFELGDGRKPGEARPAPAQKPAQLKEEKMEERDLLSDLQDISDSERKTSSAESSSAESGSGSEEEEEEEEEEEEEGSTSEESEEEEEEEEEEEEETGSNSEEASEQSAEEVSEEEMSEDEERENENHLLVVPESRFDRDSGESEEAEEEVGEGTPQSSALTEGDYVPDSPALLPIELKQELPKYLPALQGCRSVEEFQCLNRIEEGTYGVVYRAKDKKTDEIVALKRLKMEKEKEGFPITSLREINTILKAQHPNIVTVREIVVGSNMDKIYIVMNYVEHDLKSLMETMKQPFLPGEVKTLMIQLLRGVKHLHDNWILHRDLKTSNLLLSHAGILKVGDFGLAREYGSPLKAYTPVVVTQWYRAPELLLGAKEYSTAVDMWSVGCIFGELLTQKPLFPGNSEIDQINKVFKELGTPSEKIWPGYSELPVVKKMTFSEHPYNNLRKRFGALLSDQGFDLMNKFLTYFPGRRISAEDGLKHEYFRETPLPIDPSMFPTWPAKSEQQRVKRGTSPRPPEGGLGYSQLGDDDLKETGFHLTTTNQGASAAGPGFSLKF

A further test concerns the target T3, Ephrin type-B receptor 3 (Homo sapiens, UniProt P54753).
T3 sequence (P54753 whole entry): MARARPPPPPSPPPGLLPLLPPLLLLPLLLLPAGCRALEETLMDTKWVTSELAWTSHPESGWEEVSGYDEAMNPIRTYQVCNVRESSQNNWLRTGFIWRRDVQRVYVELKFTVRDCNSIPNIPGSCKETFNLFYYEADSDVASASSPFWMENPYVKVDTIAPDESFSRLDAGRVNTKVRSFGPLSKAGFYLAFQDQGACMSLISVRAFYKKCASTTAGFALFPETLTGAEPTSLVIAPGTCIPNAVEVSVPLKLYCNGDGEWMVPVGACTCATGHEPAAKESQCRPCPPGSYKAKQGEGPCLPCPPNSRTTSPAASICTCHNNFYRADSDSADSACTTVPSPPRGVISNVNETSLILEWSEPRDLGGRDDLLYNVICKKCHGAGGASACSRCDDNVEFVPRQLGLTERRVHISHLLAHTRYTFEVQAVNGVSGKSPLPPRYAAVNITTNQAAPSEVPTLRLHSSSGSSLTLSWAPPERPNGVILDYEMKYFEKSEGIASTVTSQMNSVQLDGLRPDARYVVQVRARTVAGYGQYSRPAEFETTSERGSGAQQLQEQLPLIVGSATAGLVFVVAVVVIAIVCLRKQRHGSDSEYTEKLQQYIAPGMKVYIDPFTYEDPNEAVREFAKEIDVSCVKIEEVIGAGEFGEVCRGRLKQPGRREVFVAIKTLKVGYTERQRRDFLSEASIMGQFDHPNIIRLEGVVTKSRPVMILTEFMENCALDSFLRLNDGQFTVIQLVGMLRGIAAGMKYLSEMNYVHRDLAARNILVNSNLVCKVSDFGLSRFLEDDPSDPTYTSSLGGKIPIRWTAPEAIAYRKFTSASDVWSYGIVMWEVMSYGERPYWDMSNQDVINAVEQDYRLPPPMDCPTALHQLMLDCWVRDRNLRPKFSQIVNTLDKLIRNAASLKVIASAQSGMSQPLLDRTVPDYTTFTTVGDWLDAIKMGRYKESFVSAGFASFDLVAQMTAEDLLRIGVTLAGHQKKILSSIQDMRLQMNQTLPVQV

The target of test [5] is Serine/threonine-protein kinase SIK1 (Homo sapiens, UniProt P57059).
Chain of Serine/threonine-protein kinase SIK1 (P57059 whole entry): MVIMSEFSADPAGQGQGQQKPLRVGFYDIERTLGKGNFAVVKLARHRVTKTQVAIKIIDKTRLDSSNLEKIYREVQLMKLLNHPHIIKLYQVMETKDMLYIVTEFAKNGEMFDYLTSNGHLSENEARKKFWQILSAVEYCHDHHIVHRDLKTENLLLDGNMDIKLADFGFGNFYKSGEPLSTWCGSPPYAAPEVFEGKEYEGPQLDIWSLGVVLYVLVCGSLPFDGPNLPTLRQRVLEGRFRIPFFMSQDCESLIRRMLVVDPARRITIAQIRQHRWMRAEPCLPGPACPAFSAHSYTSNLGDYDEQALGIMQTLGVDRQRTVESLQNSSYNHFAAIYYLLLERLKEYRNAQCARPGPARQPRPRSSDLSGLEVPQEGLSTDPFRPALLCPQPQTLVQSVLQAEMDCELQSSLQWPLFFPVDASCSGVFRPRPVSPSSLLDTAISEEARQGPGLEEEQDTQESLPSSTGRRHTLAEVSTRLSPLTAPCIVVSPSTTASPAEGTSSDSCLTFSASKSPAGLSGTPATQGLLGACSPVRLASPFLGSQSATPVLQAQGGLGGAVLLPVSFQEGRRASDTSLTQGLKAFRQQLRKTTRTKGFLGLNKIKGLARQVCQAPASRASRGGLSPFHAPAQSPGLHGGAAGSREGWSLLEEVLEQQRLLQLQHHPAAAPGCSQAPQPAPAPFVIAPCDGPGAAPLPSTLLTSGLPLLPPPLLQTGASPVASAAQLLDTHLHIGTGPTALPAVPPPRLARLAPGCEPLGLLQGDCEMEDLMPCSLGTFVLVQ

Chain of Serine/threonine-protein kinase PLK3 (Q9H4B4 whole entry): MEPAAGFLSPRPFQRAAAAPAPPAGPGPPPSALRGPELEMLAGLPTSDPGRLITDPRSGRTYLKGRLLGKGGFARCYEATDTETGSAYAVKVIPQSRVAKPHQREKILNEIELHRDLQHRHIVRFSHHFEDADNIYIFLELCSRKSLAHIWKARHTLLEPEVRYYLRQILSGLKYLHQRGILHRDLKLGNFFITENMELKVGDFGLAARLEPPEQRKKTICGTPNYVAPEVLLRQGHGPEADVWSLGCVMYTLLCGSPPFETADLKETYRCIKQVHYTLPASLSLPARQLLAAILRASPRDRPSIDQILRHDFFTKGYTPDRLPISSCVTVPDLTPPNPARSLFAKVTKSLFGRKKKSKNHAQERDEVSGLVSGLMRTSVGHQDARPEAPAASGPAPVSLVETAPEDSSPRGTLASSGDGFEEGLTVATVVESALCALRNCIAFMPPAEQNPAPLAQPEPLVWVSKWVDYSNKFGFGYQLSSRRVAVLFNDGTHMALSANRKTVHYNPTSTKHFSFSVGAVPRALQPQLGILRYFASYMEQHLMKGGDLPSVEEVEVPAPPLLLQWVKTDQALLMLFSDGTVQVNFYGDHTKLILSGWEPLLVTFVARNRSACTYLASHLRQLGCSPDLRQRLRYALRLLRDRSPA

`CCN1CCN(Cc2ccc(NC(=O)Nc3ccc(Oc4cc(NC)ncn4)cc3)cc2C(F)(F)F)CC1` [AST-487]: the equilibrium dissociation constant (Kd) (usually the constant that tells how readily two partners part at equilibrium) in test [1] is > 10 µM.
For the compound `COCC(=O)NC/C=C/c1ccc2ncnc(Nc3ccc(Oc4ccc(C)nc4)c(C)c3)c2c1` [CP-724714], the Kd (in test [2]; in test [3]; in test [1]; in test [4]; at Ephrin type-B receptor 3; in test [5]) was > 10 µM in each case.
On to `Nc1nc(Nc2ccc(S(N)(=O)=O)cc2)nn1C(=O)c1c(F)cccc1F` [JNJ-7706621], for which the dissociation constant (Kd) on Ephrin type-B receptor 3 was > 10 µM.
Take `CCOc1cc2ncc(C#N)c(Nc3ccc(F)c(Cl)c3)c2cc1NC(=O)/C=C/CN(C)C` [PELITINIB]: the Kd in test [2] is 1.3 µM; in test [3], 1.8 µM; in test [1], > 10 µM; in test [4] it was > 10 µM; at Ephrin type-B receptor 3 it was > 10 µM; in test [5], > 10 µM.
For the compound `Oc1ccc(-c2nc(-c3ccncc3)c(-c3ccc(F)cc3)[nH]2)cc1` [SB-202190], the Kd (in test [2]; in test [3]; in test [1]; in test [4]; on Ephrin type-B receptor 3; in test [5]) was > 10 µM in each case.
As for `NC(=O)c1ccc(-c2nc(-c3ccc4c(c3)OCO4)c(-c3ccccn3)[nH]2)cc1` [SB-431542], the dissociation constant (Kd) (in test [2]; in test [3]; in test [1]; in test [4]; at Ephrin type-B receptor 3; in test [5]) was > 10 µM each time.
